ChEMBL document CHEMBL1201862, “PubChem BioAssay data set” (2004)
One block for each molecule: values may come before it. The source made the active and inactive calls.

Columns and labels:
[1] = growth inhibition of yeast DHODH-expressing 3D7 parasites – SYBR Green, dry powder samples, dose response (AID 1159570); type: functional, cell-based;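 note: parasite growth measured after 72 hours of compound exposure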
[2] = toxicity to human HepG2 hepatoma cells – cell-based, plate reader, dry powder samples, cytotoxicity control, dose response (AID 1159569); type: functional;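 note: inhibitor potency with signal falling toward the positive control level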
[3] = P. falciparum Dd2 growth inhibitors, dose response, SYBR Green, cherry-picked samples (AID 1159567); type: functional, cell-based
[4] = Dd2 malaria parasite growth inhibition potency – SYBR Green, dry powder samples, dose response (AID 1159566); type: functional, cell-based;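 note: potency for growth inhibition with lower SYBR green DNA signal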
[5] = growth inhibition of PfATP4-mutant resistant parasites – NITD609-resistant line, SYBR Green, dry powder, dose response (AID 1159571); type: functional, cell-based;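 note: parasites synchronized at ring stage by sorbitol before testing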
Protein Tat = molecular target: T1, Protein Tat (Human immunodeficiency virus type 1 group M subtype B (isolate HXB2)(HIV-1), UniProt P04608); type: functional;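 note: tat binding to TAR RNA read out by fluorescence polarization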
T1 sequence (P04608 whole entry): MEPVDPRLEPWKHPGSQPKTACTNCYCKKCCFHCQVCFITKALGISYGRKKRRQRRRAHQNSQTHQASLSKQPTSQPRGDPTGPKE

fMet-Leu-Phe receptor = molecular target: T2, fMet-Leu-Phe receptor (Homo sapiens, UniProt P21462); experiment: formyl peptide receptor binders – dose response (AID 519); type: functional
T2 sequence (P21462 whole entry): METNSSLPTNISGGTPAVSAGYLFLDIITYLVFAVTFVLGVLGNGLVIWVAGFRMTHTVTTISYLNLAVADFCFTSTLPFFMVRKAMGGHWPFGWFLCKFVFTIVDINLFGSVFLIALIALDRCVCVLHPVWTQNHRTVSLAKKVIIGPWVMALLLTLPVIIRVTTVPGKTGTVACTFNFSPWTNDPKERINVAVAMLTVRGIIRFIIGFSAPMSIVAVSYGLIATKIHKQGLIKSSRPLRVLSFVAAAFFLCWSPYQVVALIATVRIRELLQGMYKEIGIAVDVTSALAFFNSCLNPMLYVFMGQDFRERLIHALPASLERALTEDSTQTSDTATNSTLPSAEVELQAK

[6] = viability inhibitors of stage V gametocytes – luminescence, dose response (AID 1117278); type: functional, cell-based;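 note: gametocytes exposed to compound for 24 hours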
[7] = viability loss in human Jurkat cells – cell-based, luminescence, cytotoxicity control for P. falciparum gametocyte viability project, dose response (AID 1117277); type: functional;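 note: potency reflects loss of cellular ATP meaning fewer viable cells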
[8] = molecular target: T3, Mannose-6-phosphate isomerase (Homo sapiens, UniProt P34949); experiment: MPI enzyme activity inhibition – biochemical, fluorescence intensity, coupled assay, primary screen (AID 1209)
T3 sequence (P34949 whole entry): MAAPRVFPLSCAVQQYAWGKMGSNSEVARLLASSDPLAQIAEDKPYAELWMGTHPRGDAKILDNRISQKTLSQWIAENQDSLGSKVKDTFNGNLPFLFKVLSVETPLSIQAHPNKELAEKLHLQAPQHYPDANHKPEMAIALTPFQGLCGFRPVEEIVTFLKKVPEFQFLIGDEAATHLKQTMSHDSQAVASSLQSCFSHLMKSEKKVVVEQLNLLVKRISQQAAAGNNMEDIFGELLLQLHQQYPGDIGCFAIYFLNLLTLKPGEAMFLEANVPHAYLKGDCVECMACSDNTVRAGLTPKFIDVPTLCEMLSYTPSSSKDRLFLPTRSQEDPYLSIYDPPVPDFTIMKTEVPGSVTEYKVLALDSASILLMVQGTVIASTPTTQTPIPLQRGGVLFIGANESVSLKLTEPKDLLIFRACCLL

Mucolipin-3 = molecular target: T4, Mucolipin-3 (Homo sapiens, UniProt Q8TDD5); experiment: Dose response cell-based high-throughput screening assay for agonists of the transient receptor potential channel ML3 (TRPML3). [Related pubchem assays: 1526, 1424, 1448 ]; type: functional
T4 sequence (Q8TDD5 whole entry): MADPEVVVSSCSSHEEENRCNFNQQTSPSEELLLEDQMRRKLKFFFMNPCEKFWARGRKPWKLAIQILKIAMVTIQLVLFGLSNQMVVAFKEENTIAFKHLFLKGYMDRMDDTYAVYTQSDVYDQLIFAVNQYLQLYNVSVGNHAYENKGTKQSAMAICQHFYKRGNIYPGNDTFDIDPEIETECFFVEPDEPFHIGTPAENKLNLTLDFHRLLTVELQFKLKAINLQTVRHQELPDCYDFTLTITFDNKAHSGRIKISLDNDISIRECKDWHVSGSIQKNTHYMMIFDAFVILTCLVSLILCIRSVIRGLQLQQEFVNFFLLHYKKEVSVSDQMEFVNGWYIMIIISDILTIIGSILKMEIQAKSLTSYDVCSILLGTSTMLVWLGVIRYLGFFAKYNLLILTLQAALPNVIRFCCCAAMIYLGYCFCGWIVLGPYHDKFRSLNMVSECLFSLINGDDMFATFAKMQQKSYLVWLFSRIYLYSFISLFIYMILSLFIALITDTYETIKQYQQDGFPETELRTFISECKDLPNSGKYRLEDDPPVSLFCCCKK

Ion channel NompC = Ion channel NompC (Danio rerio, UniProt Q7T1G6); experiment: Fluorescence counterscreen assay for TRPML3 agonists: dose response cell-based high-throughput screening assay to identify agonists of the transient receptor potential channel N1 (TRPN1). [Related pubchem assays: 1526, 1424, 1448 ]; type: functional
Sequence of Ion channel NompC (Q7T1G6 whole entry): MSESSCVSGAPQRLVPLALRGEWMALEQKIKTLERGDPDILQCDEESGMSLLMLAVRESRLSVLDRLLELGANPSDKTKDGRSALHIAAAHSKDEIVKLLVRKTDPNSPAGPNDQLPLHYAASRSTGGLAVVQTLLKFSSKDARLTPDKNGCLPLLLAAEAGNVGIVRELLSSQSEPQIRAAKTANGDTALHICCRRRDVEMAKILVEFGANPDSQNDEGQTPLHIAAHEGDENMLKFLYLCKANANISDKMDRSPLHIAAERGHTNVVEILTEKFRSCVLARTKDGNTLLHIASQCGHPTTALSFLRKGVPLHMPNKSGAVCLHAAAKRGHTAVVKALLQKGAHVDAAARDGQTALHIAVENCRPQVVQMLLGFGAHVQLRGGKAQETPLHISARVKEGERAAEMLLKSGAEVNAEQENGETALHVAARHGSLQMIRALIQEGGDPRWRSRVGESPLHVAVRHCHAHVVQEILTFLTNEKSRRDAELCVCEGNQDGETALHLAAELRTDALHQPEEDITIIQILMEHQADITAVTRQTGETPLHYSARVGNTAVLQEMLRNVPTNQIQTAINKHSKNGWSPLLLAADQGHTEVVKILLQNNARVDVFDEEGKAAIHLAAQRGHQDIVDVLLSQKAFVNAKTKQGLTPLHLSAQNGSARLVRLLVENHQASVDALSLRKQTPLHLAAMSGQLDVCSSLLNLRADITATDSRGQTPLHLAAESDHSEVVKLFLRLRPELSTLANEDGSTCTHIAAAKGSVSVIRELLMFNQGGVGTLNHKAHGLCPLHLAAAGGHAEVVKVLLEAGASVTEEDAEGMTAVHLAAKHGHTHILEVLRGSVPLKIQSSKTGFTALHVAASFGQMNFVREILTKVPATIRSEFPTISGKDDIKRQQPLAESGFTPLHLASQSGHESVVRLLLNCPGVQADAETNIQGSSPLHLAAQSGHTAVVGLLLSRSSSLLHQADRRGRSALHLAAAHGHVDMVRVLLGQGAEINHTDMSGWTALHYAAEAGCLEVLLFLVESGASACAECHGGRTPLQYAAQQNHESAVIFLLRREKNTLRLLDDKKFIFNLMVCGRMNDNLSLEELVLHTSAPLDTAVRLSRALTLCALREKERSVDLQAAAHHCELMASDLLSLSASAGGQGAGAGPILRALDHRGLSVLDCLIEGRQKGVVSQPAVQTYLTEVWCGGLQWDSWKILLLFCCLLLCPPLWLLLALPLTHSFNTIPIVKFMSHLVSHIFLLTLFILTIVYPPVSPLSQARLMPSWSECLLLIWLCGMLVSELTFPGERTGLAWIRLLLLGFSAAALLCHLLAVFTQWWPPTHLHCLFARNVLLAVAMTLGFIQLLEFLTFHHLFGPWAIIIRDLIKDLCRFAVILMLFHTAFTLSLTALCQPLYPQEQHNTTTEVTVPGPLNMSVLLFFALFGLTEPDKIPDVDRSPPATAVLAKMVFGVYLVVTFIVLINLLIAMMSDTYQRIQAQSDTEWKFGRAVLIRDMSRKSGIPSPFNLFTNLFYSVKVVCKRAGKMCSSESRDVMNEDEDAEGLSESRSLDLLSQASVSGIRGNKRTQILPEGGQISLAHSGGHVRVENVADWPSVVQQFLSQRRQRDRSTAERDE

SMILES: CO[C@@H]1CN(C)C(=O)c2cc(NC(=O)c3ccccc3F)ccc2OC[C@H](C)N(C(=O)c2ccccc2F)C[C@@H]1C
AC50 [1]: 2.87 µM (active) | AC50 [2]: > 100 µM (inactive) | AC50 [3]: 2.47 µM (active) | AC50 [4]: 1.1 µM (active) | AC50 [5]: 1.64 µM (active)

SMILES: O=S1(=O)OCCC(c2ccccc2)N1Cc1ccccc1 (stereo not drawn)
IC50 [6]: > 109 µM (inactive) | IC50 [7]: > 83.3 µM (inactive)

SMILES: O=C(CSc1nnc(-c2ccc(F)cc2)o1)NC1CCCCC1
IC50 [6]: > 109 µM (inactive) | IC50 [7]: > 83.3 µM (inactive)

SMILES: CCc1ccc(N2C(=O)CC(Cn3nc(C)cc3C)C2=O)cc1 (stereo not drawn)
IC50 [6]: > 109 µM (inactive) | IC50 [7]: > 83.3 µM (inactive)

SMILES: O=C(c1ccccc1F)N(NC(=O)C(O)(c1ccccc1)c1ccccc1)c1ccccc1
EC50 (Mucolipin-3): 10.4 µM (not active) | EC50 (Ion channel NompC): > 29.9 µM (not active)

Continued, values first:

IC50 (Protein Tat): > 100 µM (active)
SMILES: COc1ccc(-c2nc3oc4cc(OC)ccc4c(=O)c3c(=O)n2Cc2ccco2)cc1

Ki (fMet-Leu-Phe receptor): > 66.7 µM (inactive)
SMILES: O=C(NCCCN1CCN(c2ccc(F)cc2)CC1)c1cccc(N2CCCC2=O)c1

IC50 [8]: > 50 µM (not active)
SMILES: CC1(C)CC(=O)C(/C=N/c2ccc3[nH]ncc3c2)=C(O)C1

IC50 (Protein Tat): > 100 µM (active)
SMILES: CCc1ccc(CC)c(S(=O)(=O)Nc2ccc(C(=O)O)c(O)c2)c1

IC50 [8]: > 50 µM (not active)
SMILES: N#C/C(=C\c1cccnc1)C(=O)Nc1ccccc1
